Source: ChEMBL document CHEMBL4145653, “Biosynthetic Baeyer-Villiger Chemistry Enables Access to Two Anthracene Scaffolds from a Single Gene Cluster in Deep-Sea-Derived Streptomyces olivaceus SCSIO T05” (J Nat Prod, 2018)

What was measured:
[1] = target: T1, Alpha-2-macroglobulin (Homo sapiens, UniProt P01023); assay: Inhibition of alpha-2 macroglobulin (unknown origin)
T1 sequence (P01023 whole entry): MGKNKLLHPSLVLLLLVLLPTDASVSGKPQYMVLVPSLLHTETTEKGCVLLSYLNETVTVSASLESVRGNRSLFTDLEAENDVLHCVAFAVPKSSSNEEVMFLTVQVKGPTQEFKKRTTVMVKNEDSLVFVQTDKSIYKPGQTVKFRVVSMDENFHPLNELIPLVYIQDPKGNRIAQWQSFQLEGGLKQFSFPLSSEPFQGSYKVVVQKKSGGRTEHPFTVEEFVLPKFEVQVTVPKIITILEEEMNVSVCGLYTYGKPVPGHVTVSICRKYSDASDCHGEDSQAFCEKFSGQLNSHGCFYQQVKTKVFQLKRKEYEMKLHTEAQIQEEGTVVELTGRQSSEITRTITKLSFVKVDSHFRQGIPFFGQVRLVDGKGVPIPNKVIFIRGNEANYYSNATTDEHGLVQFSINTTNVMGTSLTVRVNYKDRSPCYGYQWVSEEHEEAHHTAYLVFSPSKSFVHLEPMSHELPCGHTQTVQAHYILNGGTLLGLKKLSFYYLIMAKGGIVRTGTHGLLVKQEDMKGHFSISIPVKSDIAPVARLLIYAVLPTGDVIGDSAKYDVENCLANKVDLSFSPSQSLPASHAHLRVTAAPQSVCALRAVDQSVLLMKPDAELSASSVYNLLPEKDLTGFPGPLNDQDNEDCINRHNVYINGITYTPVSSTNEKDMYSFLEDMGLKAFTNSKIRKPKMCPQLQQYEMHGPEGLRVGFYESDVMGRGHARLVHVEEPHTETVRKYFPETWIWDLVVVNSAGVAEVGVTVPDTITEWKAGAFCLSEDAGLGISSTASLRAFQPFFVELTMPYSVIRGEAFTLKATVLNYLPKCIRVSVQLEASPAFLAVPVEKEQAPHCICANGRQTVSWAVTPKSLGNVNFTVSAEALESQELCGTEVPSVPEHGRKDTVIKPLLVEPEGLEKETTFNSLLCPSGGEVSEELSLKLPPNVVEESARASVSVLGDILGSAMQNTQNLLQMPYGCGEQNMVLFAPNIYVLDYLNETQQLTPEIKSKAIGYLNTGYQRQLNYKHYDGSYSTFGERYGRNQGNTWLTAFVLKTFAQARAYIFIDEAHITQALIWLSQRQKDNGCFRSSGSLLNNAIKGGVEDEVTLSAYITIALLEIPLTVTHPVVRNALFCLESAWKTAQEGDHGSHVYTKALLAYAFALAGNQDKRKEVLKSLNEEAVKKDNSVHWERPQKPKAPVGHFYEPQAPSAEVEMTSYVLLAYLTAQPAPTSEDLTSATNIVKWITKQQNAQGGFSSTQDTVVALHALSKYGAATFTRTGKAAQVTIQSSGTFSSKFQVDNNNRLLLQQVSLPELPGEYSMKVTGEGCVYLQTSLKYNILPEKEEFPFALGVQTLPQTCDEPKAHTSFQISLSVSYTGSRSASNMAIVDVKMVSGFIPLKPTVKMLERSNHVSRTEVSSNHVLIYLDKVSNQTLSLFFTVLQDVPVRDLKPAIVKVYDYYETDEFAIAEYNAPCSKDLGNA

[2] = Inhibition of glutathione S-transferase (unknown origin); parameters: species or system Homo sapiens

IC50 [1] | IC50 [2] | SMILES
94 µM | 26.9 µM | CC(C)CC[C@@]1(O)c2cc3c(O)cccc3cc2C(=O)[C@H](C)[C@]1(O)C(=O)O
257 µM |  | CC(C)CC[C@]1(O)[C@@]2(O)C(=O)O[C@]13C(=Cc1cccc(O)c1[C@@H]3O)C(=O)[C@@H]2C
